Assay results from US20150105252A1, “SUBSTITUTED PYRAZOLES AS HERBICIDES” (E I DU PONT DE NEMOURS AND COMPANY, priority 2013, published 2015).

What was measured:
radish, wild = assay: Test D postemergence; type: in vivo, Raphanus raphanistrum; conditions: scale 0 to 100
Description: (§1) Seeds of plant species selected from bluegrass (annual bluegrass, Poa annua), blackgrass (Alopecurus myosuroides), canarygrass (littleseed canarygrass, Phalaris minor), chickweed (common chickweed, Stellaria media), galium (catchweed bedstraw, Galium aparine), bromegrass, downy (downy bromegrass, Bromus tectorum), field poppy (Papaver rhoeas), field violet (Viola arvensis), foxtail, green (green foxtail, Setaria viridis), deadnettle (henbit deadnettle, Lamium amplexicaule), ryegrass, Italian (Italian ryegrass, Lolium multiflorum), kochia (Kochia scoparia), lambsquarters (Chenopodium album), oilseed rape (Brassica napus), pigweed (redroot pigweed, Amaranthus retroflexus), chamomile (scentless chamomile, Matricaria inodora), speedwell (bird's-eye speedwell, Veronica persica), barley, spring (spring barley, Hordeum vulgare), wheat, spring (spring wheat, Triticum aestivum), buckwheat, wild (wild buckwheat, Polygonum convolvulus), mustard, wild (wild mustard, Sinapis arvensis), oat, wild (wild oat, Avena fatua), radish, wild (wild radish, Raphanus raphanistrum), windgrass (Apera spica-venti), Russian thistle (Salsola kali), barley, winter (winter barley, Hordeum vulgare), and wheat, winter (winter wheat, Triticum aestivum) were planted into a silt loam soil and treated preemergence with test chemicals formulated in a non-phytotoxic solvent mixture which included a surfactant.
(§2) At the same time, these species were planted in pots containing Redi-Earth® planting medium (Scotts Company, 14111 Scottslawn Road, Marysville, Ohio 43041) comprising spaghnum peat moss, vermiculite, wetting agent and starter nutrients and treated with postemergence applications of the test chemicals formulated in the same manner. Plants ranged in height from 2 to 18 cm (1- to 4-leaf stage). Treated plants and controls were maintained in a controlled growth environment for 14 to 21 days after which time all species were compared to controls and visually evaluated. Plant response ratings, summarized in Table D, are based on a scale of 0 to 100 where 0 is no effect and 100 is complete control. A dash (-) response means no test result.

chickweed = assay: Test D preemergence; type: in vivo, Stellaria media; conditions: for Plant response rating, Chickweed: Preemergence, scale 0 to 100
Description: as §1, §2

deadnettle [1] = assay: Test D postemergence; type: in vivo, Lamium amplexicaule; conditions: scale 0 to 100
Description: as §1, §2

bromegrass, downy = assay: Test D postemergence; type: in vivo, Bromus tectorum; conditions: scale 0 to 100
Description: as §1, §2

buckwheat, wild [2] = assay: Test D postemergence; type: in vivo, Polygonum convolvulus; conditions: scale 0 to 100
Description: as §1, §2

buckwheat, wild [3] = assay: Test D preemergence; type: in vivo, Polygonum convolvulus; conditions: for Plant response rating, Buckwheat, Wild: Preemergence, scale 0 to 100
Description: as §1, §2

pigweed = assay: Test D postemergence; type: in vivo, Amaranthus retroflexus; conditions: scale 0 to 100
Description: as §1, §2

field poppy = assay: Test D postemergence; type: in vivo, Papaver rhoeas; conditions: scale 0 to 100
Description: as §1, §2

windgrass [4] = assay: Test D postemergence; type: in vivo, Apera spica-venti; conditions: scale 0 to 100
Description: as §1, §2

windgrass [5] = assay: Test D preemergence; type: in vivo, Apera spica-venti; conditions: for Plant response rating, Windgrass: Preemergence, scale 0 to 100
Description: as §1, §2

deadnettle [6] = assay: Test D preemergence; type: in vivo, Lamium amplexicaule; conditions: for Plant response rating, Deadnettle: Preemergence, scale 0 to 100
Description: as §1, §2

[7] = 16 g ai/ha, taken as preemergence

Structure (SMILES): CCc1cc(C(=O)NOC(C)C)nn1Cc1cccc(OC(F)(F)F)c1 [Compound 70]
- Plant response rating, Radish, Wild (radish, wild; Postemergence, 16 g ai/ha): 10
- Radish, Wild plant response rating (radish, wild; Postemergence, 31 g ai/ha): 10
- Radish, Wild plant response rating (radish, wild; Postemergence, 125 g ai/ha): 50
- Radish, Wild plant response rating (radish, wild; Postemergence, 250 g ai/ha): 85
- Radish, Wild plant response rating (radish, wild; postemergence, 62 g ai/ha): 10
- Plant response rating (scale 0 to 100), Chickweed (chickweed; [7]): 0
- Plant response rating, Chickweed (chickweed; 31 g ai/ha): 0
- Plant response rating, Chickweed (chickweed; 62 g ai/ha): 10
- Plant response rating, Chickweed (chickweed; 125 g ai/ha): 100
- Plant response rating, Chickweed (chickweed; 250 g ai/ha): 100
- Plant response rating, Deadnettle (deadnettle [1]; Postemergence, 16 g ai/ha): 0
- Deadnettle plant response rating (deadnettle [1]; Postemergence, 31 g ai/ha): 10
- Deadnettle plant response rating (deadnettle [1]; Postemergence, 125 g ai/ha): 30
- Deadnettle plant response rating (deadnettle [1]; Postemergence, 250 g ai/ha): 60
- Deadnettle plant response rating (deadnettle [1]; postemergence, 62 g ai/ha): 10
- Plant response rating, Bromegrass, Downy (bromegrass, downy; Postemergence, 16 g ai/ha): 0
- Bromegrass, Downy plant response rating (bromegrass, downy; Postemergence, 31 g ai/ha): 0
- Bromegrass, Downy plant response rating (bromegrass, downy; Postemergence, 125 g ai/ha): 0
- Bromegrass, Downy plant response rating (bromegrass, downy; Postemergence, 250 g ai/ha): 10
- Bromegrass, Downy plant response rating (bromegrass, downy; postemergence, 62 g ai/ha): 0
- Plant response rating, Buckwheat, Wild (buckwheat, wild [2]; Postemergence, 16 g ai/ha): 10
- Buckwheat, Wild plant response rating (buckwheat, wild [2]; Postemergence, 31 g ai/ha): 20
- Buckwheat, Wild plant response rating (buckwheat, wild [2]; Postemergence, 125 g ai/ha): 20
- Buckwheat, Wild plant response rating (buckwheat, wild [2]; Postemergence, 250 g ai/ha): 35
- Buckwheat, Wild plant response rating (buckwheat, wild [2]; postemergence, 62 g ai/ha): 20
- Plant response rating (scale 0 to 100), Buckwheat, Wild (buckwheat, wild [3]; [7]): 0
- Plant response rating, Buckwheat, Wild (buckwheat, wild [3]; 31 g ai/ha): 0
- Plant response rating, Buckwheat, Wild (buckwheat, wild [3]; 62 g ai/ha): 0
- Plant response rating, Buckwheat, Wild (buckwheat, wild [3]; 125 g ai/ha): 0
- Plant response rating, Buckwheat, Wild (buckwheat, wild [3]; 250 g ai/ha): 100
- Plant response rating, Pigweed (pigweed; Postemergence, 16 g ai/ha): 40
- Pigweed plant response rating (pigweed; Postemergence, 31 g ai/ha): 60
- Pigweed plant response rating (pigweed; Postemergence, 125 g ai/ha): 75
- Pigweed plant response rating (pigweed; Postemergence, 250 g ai/ha): 90
- Pigweed plant response rating (pigweed; postemergence, 62 g ai/ha): 60
- Plant response rating, Field Poppy (field poppy; Postemergence, 16 g ai/ha): 20
- Field Poppy plant response rating (field poppy; Postemergence, 31 g ai/ha): 70
- Field Poppy plant response rating (field poppy; Postemergence, 125 g ai/ha): 80
- Field Poppy plant response rating (field poppy; Postemergence, 250 g ai/ha): 100
- Field Poppy plant response rating (field poppy; postemergence, 62 g ai/ha): 75
- Plant response rating, Windgrass (windgrass [4]; Postemergence, 16 g ai/ha): 0
- Windgrass plant response rating (windgrass [4]; Postemergence, 31 g ai/ha): 0
- Windgrass plant response rating (windgrass [4]; Postemergence, 125 g ai/ha): 0
- Windgrass plant response rating (windgrass [4]; Postemergence, 250 g ai/ha): 0
- Windgrass plant response rating (windgrass [4]; postemergence, 62 g ai/ha): 0
- Plant response rating (scale 0 to 100), Windgrass (windgrass [5]; [7]): 0
- Plant response rating, Windgrass (windgrass [5]; 31 g ai/ha): 0
- Plant response rating, Windgrass (windgrass [5]; 62 g ai/ha): 0
- Plant response rating, Windgrass (windgrass [5]; 125 g ai/ha): 0
- Plant response rating, Windgrass (windgrass [5]; 250 g ai/ha): 0
- Plant response rating (scale 0 to 100), Deadnettle (deadnettle [6]; [7]): 0
- Plant response rating, Deadnettle (deadnettle [6]; 31 g ai/ha): 25
- Plant response rating, Deadnettle (deadnettle [6]; 62 g ai/ha): 30
- Plant response rating, Deadnettle (deadnettle [6]; 125 g ai/ha): 50
- Plant response rating, Deadnettle (deadnettle [6]; 250 g ai/ha): 100
